Data published in patent publication US20090018111A1, “Novel Antimicrobial Medicament” (priority 2004, published 2009).
Where two headings read alike, the source gives them in different places.

Legend:
Test in all cases: Sensitivity test (agar dilution)
S. aureus 209P = type: cell-based, Staphylococcus aureus; conditions: Staphylococcus aureus, 209P
Outline: (§1)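 FIC index is computed from MICs of each drug alone versus in combination (≤1 = enhancement, >1 = none). MICs are measured on Mueller Hinton agar plates carrying twofold dilution series and inoculated with about 10^6 CFU/ml bacterial suspension.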

[1] = test system: S. aureus MS94088 (hetero-MRSA); type: cell-based, Staphylococcus aureus; conditions: Staphylococcus aureus, MRSA
Outline: as §1

[2] = test system: S. aureus SP-7928 (homo-MRSA); type: cell-based, Staphylococcus aureus; conditions: Staphylococcus aureus, MRSA
Outline: as §1

M. luteus ATCC9341 = type: cell-based, Micrococcus luteus; conditions: Micrococcus luteus
Outline: as §1

Str. pyogenes Cook = type: cell-based, Streptococcus pyogenes; conditions: Streptococcus pyogenes
Outline: as §1

E. faecium ATCC19434 = type: cell-based, Enterococcus faecium
Outline: as §1

B. subtilis ATCC6633 = type: cell-based, Bacillus subtilis; conditions: Bacillus subtilis
Outline: as §1

E. coli NIHJ JC-2 = type: cell-based, Escherichia coli; conditions: Escherichia coli
Outline: as §1

K. pneumoniae ATCC10031 = type: cell-based, Klebsiella pneumoniae; conditions: Klebsiella pneumoniae
Outline: as §1

P. vulgaris GN7919 = type: cell-based, Proteus vulgaris; conditions: Proteus vulgaris
Outline: as §1

P. vurgalis OX-19 = type: cell-based, Proteus vulgaris; conditions: Proteus vulgaris
Outline: as §1

E. aerogenes ATCC13048 = type: cell-based, Enterobacter aerogenes; conditions: Klebsiella aerogenes
Outline: as §1

S. maltophilia IID1275 = type: cell-based, Stenotrophomonas maltophilia; conditions: Stenotrophomonas maltophilia
Outline: as §1

[3] = Concomitant (MEPM:SM = 1:1), read-out: MIC
[4] = Concomitant (MEPM:SM = 1:2), read-out: MIC
[5] = Concomitant (MEPM:SM = 1:4), read-out: MIC
[6] = Concomitant drug (MEPM:SM = 2:1), read-out: MIC

For `C[C@@H](O)[C@H]1C(=O)N2C(C(=O)O)=C(S[C@@H]3CN[C@H](C(=O)N(C)C)C3)[C@H](C)[C@H]12` [MEPM, meropenem], the MIC (S. aureus 209P; [3]) was ≤ 0.016 µg/mL, the MIC (S. aureus 209P; [4]) was ≤ 0.016 µg/mL and the MIC (S. aureus 209P; [5]) was ≤ 0.016 µg/mL. For the same compound, the MIC (S. aureus 209P; [6]) was ≤ 0.016 µg/mL, the MIC (S. aureus 209P; alone, read-out: MIC) was 0.063 µg/mL and the MIC [1] was 0.125 µg/mL. It also gave an MIC [1, 3] of 0.25 µg/mL, an MIC [1, 5] of 0.063 µg/mL and an MIC [1, 6] of 0.5 µg/mL. For the same compound, the MIC ([1]; alone, read-out: MIC) was 4 µg/mL, the MIC [2, 3] was 1 µg/mL and the MIC [2, 4] was 1 µg/mL. The MIC [2, 5] was 0.5 µg/mL, the MIC [2, 6] was 2 µg/mL and the MIC ([2]; alone, read-out: MIC) was 32 µg/mL. For the same compound, the MIC (M. luteus ATCC9341; ATCC9341) was 0.125 µg/mL, the MIC (M. luteus ATCC9341; ATCC9341, Concomitant (MEPM:SM = 1:1), read-out: MIC) was ≤ 0.016 µg/mL and the MIC (M. luteus ATCC9341; ATCC9341, Concomitant (MEPM:SM = 1:2), read-out: MIC) was ≤ 0.016 µg/mL. For the same compound, the MIC (M. luteus ATCC9341; ATCC9341, Concomitant (MEPM:SM = 1:4), read-out: MIC) was ≤ 0.016 µg/mL, the MIC (M. luteus ATCC9341; ATCC9341, Concomitant drug (MEPM:SM = 2:1), read-out: MIC) was ≤ 0.016 µg/mL and the MIC (Str. pyogenes Cook; [3]) was ≤ 0.016 µg/mL. For the same compound, the MIC (Str. pyogenes Cook; [4]) was ≤ 0.016 µg/mL, the MIC (Str. pyogenes Cook; [5]) was ≤ 0.016 µg/mL and the MIC (Str. pyogenes Cook; [6]) was ≤ 0.016 µg/mL. The MIC (Str. pyogenes Cook; alone, read-out: MIC) was ≤ 0.016 µg/mL, the MIC (E. faecium ATCC19434; Concomitant (MEPM:SM = 1:2)) was 0.125 µg/mL and the MIC (E. faecium ATCC19434; Enterococcus faecium, ATCC19434) was 0.125 µg/mL. It also gave an MIC (E. faecium ATCC19434; Enterococcus faecium, ATCC19434, Concomitant (MEPM:SM = 1:4), read-out: MIC) of 0.031 µg/mL, an MIC (E. faecium ATCC19434; Enterococcus faecium, ATCC19434, Concomitant drug (MEPM:SM = 2:1), read-out: MIC) of 0.5 µg/mL and an MIC (E. faecium ATCC19434; Enterococcus faecium, ATCC19434, alone, read-out: MIC) of 8 µg/mL. For the same compound, the MIC (B. subtilis ATCC6633; ATCC6633, Concomitant (MEPM:SM = 1:1), read-out: MIC) was ≤ 0.016 µg/mL, the MIC (B. subtilis ATCC6633; ATCC6633, Concomitant (MEPM:SM = 1:2), read-out: MIC) was ≤ 0.016 µg/mL and the MIC (B. subtilis ATCC6633; ATCC6633, Concomitant (MEPM:SM = 1:4), read-out: MIC) was ≤ 0.016 µg/mL. For the same compound, the MIC (B. subtilis ATCC6633; ATCC6633, Concomitant drug (MEPM:SM = 2:1), read-out: MIC) was ≤ 0.016 µg/mL, the MIC (B. subtilis ATCC6633; ATCC6633, alone, read-out: MIC) was 0.063 µg/mL and the MIC (E. coli NIHJ JC-2; NIHJJC2, Concomitant (MEPM:SM = 1:1), read-out: MIC) was ≤ 0.016 µg/mL. The MIC (E. coli NIHJ JC-2; NIHJJC2, Concomitant (MEPM:SM = 1:2), read-out: MIC) was ≤ 0.016 µg/mL, the MIC (E. coli NIHJ JC-2; NIHJJC2, Concomitant (MEPM:SM = 1:4), read-out: MIC) was ≤ 0.016 µg/mL and the MIC (E. coli NIHJ JC-2; NIHJJC2, Concomitant drug (MEPM:SM = 2:1), read-out: MIC) was ≤ 0.016 µg/mL. The MIC (E. coli NIHJ JC-2; NIHJJC2, alone, read-out: MIC) was ≤ 0.016 µg/mL, the MIC (K. pneumoniae ATCC10031; ATCC10031, Concomitant (MEPM:SM = 1:1), read-out: MIC) was ≤ 0.016 µg/mL and the MIC (K. pneumoniae ATCC10031; ATCC10031, Concomitant (MEPM:SM = 1:2), read-out: MIC) was ≤ 0.016 µg/mL. The MIC (K. pneumoniae ATCC10031; ATCC10031, Concomitant (MEPM:SM = 1:4), read-out: MIC) was ≤ 0.016 µg/mL, the MIC (K. pneumoniae ATCC10031; ATCC10031, Concomitant drug (MEPM:SM = 2:1), read-out: MIC) was ≤ 0.016 µg/mL and the MIC (K. pneumoniae ATCC10031; ATCC10031, alone, read-out: MIC) was ≤ 0.016 µg/mL. It also gave an MIC (P. vulgaris GN7919; GN7919, Concomitant (MEPM:SM = 1:1), read-out: MIC) of 0.031 µg/mL, an MIC (P. vulgaris GN7919; GN7919, Concomitant (MEPM:SM = 1:2), read-out: MIC) of 0.031 µg/mL and an MIC (P. vulgaris GN7919; GN7919, Concomitant (MEPM:SM = 1:4), read-out: MIC) of 0.031 µg/mL. For the same compound, the MIC (P. vulgaris GN7919; GN7919, Concomitant drug (MEPM:SM = 2:1), read-out: MIC) was 0.031 µg/mL, the MIC (P. vulgaris GN7919; GN7919, alone, read-out: MIC) was 0.063 µg/mL and the MIC (P. vurgalis OX-19; OX19, Concomitant (MEPM:SM = 1:1), read-out: MIC) was ≤ 0.016 µg/mL. For the same compound, the MIC (P. vurgalis OX-19; OX19, Concomitant (MEPM:SM = 1:2), read-out: MIC) was ≤ 0.016 µg/mL, the MIC (P. vurgalis OX-19; OX19, Concomitant (MEPM:SM = 1:4), read-out: MIC) was ≤ 0.016 µg/mL and the MIC (P. vurgalis OX-19; OX19, Concomitant drug (MEPM:SM = 2:1), read-out: MIC) was 0.031 µg/mL. The MIC (P. vurgalis OX-19; OX19, alone, read-out: MIC) was 0.063 µg/mL, the MIC (E. aerogenes ATCC13048; ATCC13048, Concomitant (MEPM:SM = 1:1), read-out: MIC) was ≤ 0.016 µg/mL and the MIC (E. aerogenes ATCC13048; ATCC13048, Concomitant (MEPM:SM = 1:2), read-out: MIC) was 0.031 µg/mL. For the same compound, the MIC (E. aerogenes ATCC13048; ATCC13048, Concomitant (MEPM:SM = 1:4), read-out: MIC) was 0.031 µg/mL, the MIC (E. aerogenes ATCC13048; ATCC13048, Concomitant drug (MEPM:SM = 2:1), read-out: MIC) was 0.031 µg/mL and the MIC (E. aerogenes ATCC13048; ATCC13048, alone, read-out: MIC) was 0.063 µg/mL. For the same compound, the MIC (S. maltophilia IID1275; IID1275, Concomitant (MEPM:SM = 1:1), read-out: MIC) was > 32 µg/mL, the MIC (S. maltophilia IID1275; IID1275, Concomitant (MEPM:SM = 1:2), read-out: MIC) was > 32 µg/mL and the MIC (S. maltophilia IID1275; IID1275, Concomitant (MEPM:SM = 1:4), read-out: MIC) was > 32 µg/mL. The MIC (S. maltophilia IID1275; IID1275, Concomitant drug (MEPM:SM = 2:1), read-out: MIC) was > 32 µg/mL and the MIC (S. maltophilia IID1275; IID1275, alone, read-out: MIC) was > 32 µg/mL.

Compound `CC(=N)N1CC[C@H](SC2=C(C(=O)O)N3C(=O)[C@H]([C@@H](C)O)[C@H]3C2)C1` [PAPM, panipenem] has an MIC (S. aureus 209P; Concomitant (PAPM:SM = 1:1), S. aureus 209P, read-out: MIC concomitant) of 0.004 µg/mL, an MIC (S. aureus 209P; drug alone, S. aureus 209P, read-out: MIC alone) of 0.031 µg/mL and an MIC ([1]; Concomitant (PAPM:SM = 1:1), S. aureus MS94088 (hetero-MRSA), read-out: MIC concomitant) of 0.25 µg/mL. The MIC ([1]; drug alone, S. aureus MS94088 (hetero-MRSA), read-out: MIC alone) was 0.5 µg/mL, the MIC ([2]; Concomitant (PAPM:SM = 1:1), S. aureus SP-7928 (homo-MRSA), read-out: MIC concomitant) was 2 µg/mL and the MIC ([2]; drug alone, S. aureus SP-7928 (homo-MRSA), read-out: MIC alone) was > 32 µg/mL. The MIC (M. luteus ATCC9341; ATCC9341, Concomitant (PAPM:SM = 1:1), M. luteus ATCC9341, read-out: MIC concomitant) was ≤ 0.002 µg/mL, the MIC (M. luteus ATCC9341; ATCC9341, drug alone, M. luteus ATCC9341, read-out: MIC alone) was 0.031 µg/mL and the MIC (Str. pyogenes Cook; Concomitant (PAPM:SM = 1:1), Str. pyogenes Cook, read-out: MIC concomitant) was ≤ 0.002 µg/mL. The MIC (Str. pyogenes Cook; drug alone, Str. pyogenes Cook, read-out: MIC alone) was 0.008 µg/mL, the MIC (E. faecium ATCC19434; Enterococcus faecium, ATCC19434, Concomitant (PAPM:SM = 1:1), E. faecium ATCC19434, read-out: MIC concomitant) was 0.125 µg/mL and the MIC (E. faecium ATCC19434; Enterococcus faecium, ATCC19434, drug alone, E. faecium ATCC19434, read-out: MIC alone) was 8 µg/mL. The MIC (B. subtilis ATCC6633; ATCC6633, Concomitant (PAPM:SM = 1:1), B. subtilis ATCC6633, read-out: MIC concomitant) was ≤ 0.002 µg/mL, the MIC (B. subtilis ATCC6633; ATCC6633, drug alone, B. subtilis ATCC6633, read-out: MIC alone) was 0.016 µg/mL and the MIC (E. coli NIHJ JC-2; NIHJJC2, Concomitant (PAPM:SM = 1:1), E. coli NIHJ JC-2, read-out: MIC concomitant) was 0.063 µg/mL. For the same compound, the MIC (E. coli NIHJ JC-2; NIHJJC2, drug alone, E. coli NIHJ JC-2, read-out: MIC alone) was 0.25 µg/mL, the MIC (K. pneumoniae ATCC10031; ATCC10031, Concomitant (PAPM:SM = 1:1), K. pneumoniae ATCC10031, read-out: MIC concomitant) was 0.016 µg/mL and the MIC (K. pneumoniae ATCC10031; ATCC10031, drug alone, K. pneumoniae ATCC10031, read-out: MIC alone) was 0.125 µg/mL. It also gave an MIC (P. vulgaris GN7919; GN7919, Concomitant (PAPM:SM = 1:1), P. vulgaris GN7919, read-out: MIC concomitant) of 0.5 µg/mL, an MIC (P. vulgaris GN7919; GN7919, drug alone, P. vulgaris GN7919, read-out: MIC alone) of 1 µg/mL and an MIC (P. vurgalis OX-19; OX19, Concomitant (PAPM:SM = 1:1), P. vurgalis OX-19, read-out: MIC concomitant) of 0.063 µg/mL. The MIC (P. vurgalis OX-19; OX19, drug alone, P. vurgalis OX-19, read-out: MIC alone) was 1 µg/mL, the MIC (E. aerogenes ATCC13048; ATCC13048, Concomitant (PAPM:SM = 1:1), E. aerogenes ATCC13048, read-out: MIC concomitant) was 0.25 µg/mL and the MIC (E. aerogenes ATCC13048; ATCC13048, drug alone, E. aerogenes ATCC13048, read-out: MIC alone) was 0.5 µg/mL. For the same compound, the MIC (S. maltophilia IID1275; IID1275, Concomitant (PAPM:SM = 1:1), S. maltophilia IID1275, read-out: MIC concomitant) was > 32 µg/mL and the MIC (S. maltophilia IID1275; IID1275, drug alone, S. maltophilia IID1275, read-out: MIC alone) was > 32 µg/mL.
